Data reported in PMC6155332, “Antimalarials with Benzothiophene Moieties as Aminoquinoline Partners” (Molecules : A Journal of Synthetic Chemistry and Natural …, 2017).
Where “and” joins values, the source holds several entries; their conditions need not be identical. Equal entries are not always repeated.

Experiments:
[1] = tested on: P. falciparum TM91C235 (Thailand, multidrug-resistant (MDR) strain); test: Malaria SYBR Green Fluorescence Assay, TM91C235 strain; assay type: cell-based; conditions: Plasmodium falciparum, read-out: In Vitro Antimalarial Activity (P. falciparum, IC50, nM) C235
[2] = tested on: HepG2 (hepatocellular carcinoma) cell line; test: Compound toxicity in HepG2 cell line; assay type: cell-based, human; conditions: for IC50: Homo sapiens, HepG2, hepatocellular carcinoma cells; for SI HepG2/D6 (selectivity index): IC50 HepG2 / IC50 D6
Method: To investigate possible toxicity issues, the synthesized compounds were evaluated in vitro against a human hepatoma cell line (HepG2).
Synthesized aminoquinolines were screened in vitro against P. falciparum strains: CQ and MFQ susceptible strain D6 (clone of Sierra Leone/UNC isolate), CQ resistant but MFQ susceptible strain W2 (clone of Indochina isolate), and CQ and MFQ resistant strain TM91C235 (clone of South East Asian isolate) using the Malaria SYBR Green Fluorescence Assay. Full method details are given in Supplementary Materials I. Assessment of compound toxicity in a HepG2 (hepatocellular carcinoma) cell line followed the protocol described in Ref. [40].

[3] = tested on: P. falciparum D6 (CQ susceptible (CQS) strain); test: Malaria SYBR Green Fluorescence Assay, D6 strain; assay type: cell-based; conditions: Plasmodium falciparum; CQ susceptible African D6 clone; read-out: In Vitro Antimalarial Activity (P. falciparum, IC50, nM) D6
[4] = tested on: P. falciparum W2 (CQ resistant (CQR) strain); test: microbe, parasite or virus in culture; assay type: cell-based, Plasmodium falciparum; conditions: for RI W2/D6 (resistance index): IC50 W2 / IC50 D6; for IC50: Plasmodium falciparum, W2, read-out: In Vitro Antimalarial Activity (P. falciparum, IC50, nM) W2
healthy mice = test: Host toxicity study in healthy mice; assay type: in vivo; conditions: 160 mg/kg/day × 3 days; for Mice survived in host toxicity study: groups of 5 healthy mice; for Host toxicity (toxic / non-toxic): healthy mice, orally
Method: In a separate host toxicity study, groups of five healthy mice were administered 160 mg/kg/day × 3 days of the investigational compounds and individually monitored for behavior and appearance two times a day for 31 days. No toxicity was defined as survival past day 31 with no overt clinical manifestations of toxicity (changes in behavior and appearance).

P. berghei (ANKA) = test: Modified Thompson test, P. berghei mouse efficacy; assay type: in vivo, Plasmodium berghei; conditions: for Mean Survival Time (MST, Days) / Mice Alive on Day 31 / Mice Dead/Day Died: infected mice; for Parasitemia D25: day 25
Method: In a separate host toxicity study, benzothiophene 25 was subjected to in vivo toxicity evaluation. […]
The P. berghei (ANKA) mouse efficacy tests were conducted using a modified version of the Thompson test. Groups of five mice were inoculated intraperitoneally with erythrocytes infected with P. berghei on day 0. Drugs were suspended in 0.5% hydroxyethylcellulose-0.1% Tween 80 and administered orally once a day beginning on day 3 post infection. […] Cure was defined as survival (with no parasitemia) until day 31 post-treatment. Parasitemia was determined by thin-blood Giemsa-stained smears prepared from mice tail blood of each animal on days 0, 3, 6, 10, 13, 17, 20, 24, 27, and 31 (postinfection). The slides were examined under a light microscope.

[5] = 160 mg/kg/day p.o., days 3–5 postinfection
[6] = 40 mg/kg/day p.o., days 3–6 postinfection
[7] = 80 mg/kg/day p.o., days 3–6 postinfection

Row | Structure (SMILES) | IC50 [1] [nM] | IC50 [2] [nM] | SI HepG2/D6 (selectivity index) [2] | IC50 [3] [nM] | RI W2/D6 (resistance index) [4] | IC50 [4] [nM] | also measured
1 | N#Cc1ccc2scc(-c3ccc(CNCCCCNc4ccnc5ccccc45)cc3)c2c1 [Compound 28] | 129 | 2580 | 401 | 6 | 31.3 | 188 | –
2 | N#Cc1ccc(-c2ccc(-c3ccc(CNCCNc4ccnc5cc(Cl)ccc45)cc3)s2)cc1 [Compound 37] | 60 | > 30600 | – | 49 | 0.5 | 26 | –
3 | CC(CCCNCc1ccc(-c2csc3ccc(C#N)cc23)cc1)Nc1ccnc2ccccc12 (stereo not shown) [Compound 29] | 46 | 2410 | 192 | 13 | 3.4 | 44 | –
4 | N#Cc1ccc(-c2ccc(-c3ccc(CNCCCCCCNc4ccnc5cc(Cl)ccc45)cc3)s2)cc1 [Compound 41] | 20 | 2420 | 89 | 27 | 0.5 | 13 | –
5 | c1ccc2sc(CNCCCNc3ccnc4ccccc34)cc2c1 [Compound 8] | 107 | 8870 | 440 | 20 | 5.2 | 104 | –
6 | N#Cc1ccc2c(-c3ccc(CNCCCCNc4ccnc5ccccc45)cc3)csc2c1 [Compound 31] | 93 | 3580 | 276 | 13 | 15.2 | 197 | –
7 | N#Cc1ccc2scc(-c3ccc(CNCCCCCCNc4ccnc5ccccc45)cc3)c2c1 [Compound 30] | 51 | 1980 | 162 | 12 | 6.8 | 81 | –
8 | N#Cc1ccc(-c2ccc(-c3ccc(CNCCCNc4ccnc5cc(Cl)ccc45)cc3)s2)cc1 [Compound 38] | 43 | 2560 | 30 | 84 | 0.2 | 20 | –
9 | N#Cc1ccc(-c2ccc(-c3ccc(CNCCCCNc4ccnc5ccccc45)cc3)s2)cc1 [Compound 43] | 34 | 8150 | 2038 | 4 | 26 | 106 | –
10 | Fc1ccc2c(CNCCCNc3ccnc4ccccc34)csc2c1 [Compound 12] | 191 | 4480 | 211 | 21 | 8.8 | 185 | –
11 | N#Cc1ccc(-c2ccc(-c3ccc(CNCCCCNc4ccnc5cc(Cl)ccc45)cc3)s2)cc1 [Compound 39] | 52 | > 5790 | – | 59 | 0.8 | 46 | –
12 | N#Cc1ccc(-c2ccc(-c3ccc(CNCCCCCCCCNc4ccnc5cc(Cl)ccc45)cc3)s2)cc1 [Compound 42] | 30 | 2090 | 38 | 55 | 0.2 | 12 | Mice survived in host toxicity study (healthy mice): 5; Host toxicity (toxic / non-toxic) (healthy mice): non-toxic; Parasitemia D24 (P. berghei (ANKA); 160 mg/kg/day p.o. days 3–5, day 24): 75%; Mean Survival Time (MST, Days) (P. berghei (ANKA); [5]): 18.6 days; Mice Alive on Day 31 (P. berghei (ANKA); [5]): 0/5; Mice Dead/Day Died (P. berghei (ANKA); 160 mg/kg/day p.o., days 3–5 postinfection, 160 mg/kg/day): 1/9 and 1/13 and 1/20 and 1/23 and 1/28
13 | c1ccc2sc(CNCCCCNc3ccnc4ccccc34)cc2c1 [Compound 9] | 205 | 4870 | 339 | 14 | 13.6 | 191 | –
14 | CN(CCCCCCCCNc1ccnc2ccccc12)Cc1ccc(-c2ccc(-c3ccc(C#N)cc3)s2)cc1 [Compound 46] | 13 | 2570 | 367 | 7 | 0.7 | 5 | Mice survived in host toxicity study (healthy mice): 5; Host toxicity (toxic / non-toxic) (healthy mice): non-toxic; Parasitemia D25 (P. berghei (ANKA); 40 mg/kg/day p.o. days 3–6): 43%; Parasitemia D14 (P. berghei (ANKA); 80 mg/kg/day p.o. days 3–6, day 14): 4.7%; Parasitemia D18 (P. berghei (ANKA); 80 mg/kg/day p.o. days 3–6, day 18): 12%; Parasitemia D21 (P. berghei (ANKA); 80 mg/kg/day p.o. days 3–6, day 21): 35%; Parasitemia D25 (P. berghei (ANKA); 80 mg/kg/day p.o. days 3–6): 41%; One mouse survival until day (P. berghei (ANKA); 80 and 40 mg/kg/day × 4 days (both doses)): 25 days; Mean Survival Time (MST, Days) (P. berghei (ANKA); [6]): 15.8 days; Mice Alive on Day 31 (P. berghei (ANKA); [6]): 0/5; Mice Dead/Day Died (P. berghei (ANKA); 40 mg/kg/day p.o., days 3–6 postinfection, 40 mg/kg/day): 1/10 and 2/11 and 1/22 and 1/25; Mean Survival Time (MST, Days) (P. berghei (ANKA); [7]): 14.4 days; Mice Alive on Day 31 (P. berghei (ANKA); [7]): 0/5; Mice Dead/Day Died (P. berghei (ANKA); 80 mg/kg/day p.o., days 3–6 postinfection, 80 mg/kg/day): 1/7 and 1/12 and 1/13 and 1/14 and 1/26
15 | OC(c1cc(C(F)(F)F)nc2c(C(F)(F)F)cccc12)C1CCCCN1 (stereo not shown) [MFQ, mefloquine, reference compound] | 55 | – | – | 23 | 0.3 | 7 | –
16 | Fc1ccc2scc(-c3ccc(CNCCCNc4ccnc5ccccc45)cc3)c2c1 [Compound 23] | 111 | 3820 | 136 | 28 | 5.1 | 144 | –
17 | N#Cc1ccc(-c2ccc(-c3ccc(CNCCCCCNc4ccnc5cc(Cl)ccc45)cc3)s2)cc1 [Compound 40] | 54 | 6700 | 84 | 80 | 0.5 | 41 | –
18 | N#Cc1ccc(-c2ccc(-c3ccc(CNCCCCCCNc4ccnc5ccccc45)cc3)s2)cc1 [Compound 44] | 54 | 4080 | 40 | 101 | 0.7 | 74 | –
19 | CCN(CC)CCCC(C)Nc1ccnc2cc(Cl)ccc12 (stereo not shown) [CQ, chloroquine, reference compound] | 206 | – | – | 15 | – | 595 | Parasitemia D6-D31 (P. berghei (ANKA); 160 mg/kg/day p.o. days 3–5, days 6–31): 5 mice negative; Mean Survival Time (MST, Days) (P. berghei (ANKA); [5]): >31 days; Mice Alive on Day 31 (P. berghei (ANKA); [5]): 5/5
20 | N#Cc1ccc2c(-c3ccc(CNCCCCCCNc4ccnc5ccccc45)cc3)csc2c1 [Compound 32] | 29 | 2050 | 37 | 55 | 1.8 | 102 | –
21 | Fc1ccc2scc(CNCCCCNc3ccnc4ccccc34)c2c1 [Compound 13] | 177 | 2730 | 172 | 16 | 12.6 | 201 | –
22 | C#Cc1ccc(-c2ccc(-c3ccc(CNCCCCCCCCNc4ccnc5ccccc45)cc3)s2)cc1 [Compound 52] | 274 | 9230 | 52 | 177 | 1.5 | 259 | –
23 | CC(CCCNCc1ccc(-c2csc3ccc(F)cc23)cc1)Nc1ccnc2ccccc12 (stereo not shown) [Compound 26] | 45 | 2340 | 65 | 36 | 1.5 | 55 | –
24 | CC(CCCN(C)Cc1ccc(-c2csc3ccc(F)cc23)cc1)Nc1ccnc2ccccc12 (stereo not shown) [Compound 27] | 126 | 5000 | 173 | 29 | 4.3 | 126 | –
25 | Fc1ccc2scc(-c3ccc(CNCCCCCCNc4ccnc5ccccc45)cc3)c2c1 [Compound 24] | 242 | 2230 | 37 | 60 | 4.6 | 277 | –
